# Experimental data published in US20150111934A1, “CRYSTALLINE FORMS OF AN ADRENERGIC AGONIST” (DIPHARMA FRANCIS S.R.L., priority 2013, published 2015).
# Columns and labels:
# [1] = cited from earlier work; for physical stability of the crystalline form: prior art forms of U.S. Pat. No. 7,342,117
# physchem = conditions: 25 °C, water
Compound,solubility in water (in words) (solubility in water),physical stability of the crystalline form [1],other results
"Nc1nc(CC(=O)Nc2ccc(CCNC[C@H](O)c3ccccc3)cc2)cs1 [form β, (R)-2-(2-Aminothiazol-4-yl)-4′-[2-[(2-hydroxy-2-phenylethyl)amino]ethyl]acetanilide]",–,metastable polymorph,–
Cl.Cl.Nc1nc(CC(=O)Nc2ccc(CCNCC(O)c3ccccc3)cc2)cs1 (stereo not drawn),–,–,"hygroscopicity and stability of the crystalline salt ([1]; as demonstrated in U.S. Pat. No. 7,342,117): highly hygroscopic and unstable"
"CC(=O)O.Nc1nc(CC(=O)Nc2ccc(CCNC[C@H](O)c3ccccc3)cc2)cs1 [Mirabegron acetate salt, 2-(2-amino-1,3-thiazol-4-yl)-N-[4-(2-{[(2R)-2-hydroxy-2-phenylethyl]amino}ethyl)phenyl]acetamide acetate salt]",–,–,solubility (physchem): ~100 mg/mL
"Nc1nc(CC(=O)Nc2ccc(CCNC[C@H](O)c3ccccc3)cc2)cs1 [Mirabegron base, (R)-2-(2-Aminothiazol-4-yl)-4′-[2-[(2-hydroxy-2-phenylethyl)amino]ethyl]acetanilide]",almost wholly insoluble in water,–,–
"Nc1nc(CC(=O)Nc2ccc(CCNC[C@H](O)c3ccccc3)cc2)cs1 [Crystalline form α of Mirabegron, (R)-2-(2-Aminothiazol-4-yl)-4′-[2-[(2-hydroxy-2-phenylethyl)amino]ethyl]acetanilide]",practically insoluble in water,stable solid form,–
